Results from ChEMBL document CHEMBL1151229, “Isolation and structure of gustastatin from the Brazilian nut tree Gustavia hexapetala” (2004).
Values after ≈ are worked out from the molar mass of the structure shown.

How the values were obtained:
Type in all cases: functional
MCF7 = assay: Cytotoxicity against human MCF7 cells
KM-20L2 = assay: Cytotoxicity against human KM20L2 cells
DU-145 = assay: Cytotoxicity against human DU145 cells
BXPC-3 = assay: Cytotoxicity against human BxPC3 cells
P388 = assay: Cytotoxicity against mouse P388 cells
SF-268 = assay: Cytotoxicity against human SF268 cells
NCI-H460 = assay: Cytotoxicity against human NCI-H460 cells

Compound | GI50 (MCF7) [µg/mL] | GI50 (KM-20L2) [µg/mL] | GI50 (DU-145) [µg/mL] | GI50 (BXPC-3) [µg/mL] | GI50 (P388) [µg/mL] | GI50 (SF-268) [µg/mL] | GI50 (NCI-H460) [µg/mL]
CC1(C)C=Cc2cc3ccc(=O)oc3cc2O1 [XANTHYLETIN] | 5.9 (≈ 25.8 µM) | 6.3 (≈ 27.6 µM) | 2.9 (≈ 12.7 µM) | 5.5 (≈ 24.1 µM) | > 10 | 11.2 (≈ 49.1 µM) | 9 (≈ 39.4 µM)
CCCCCC(=O)Cc1cc(OC)cc(O)c1C(=O)Oc1cc(CC(=O)CCCCC)c(C(=O)OC)c(OC)c1 [GUSTASTATIN] | 6.4 (≈ 11.5 µM) | > 10 | 5.2 (≈ 9.34 µM) | > 10 | > 10 | 7.9 (≈ 14.2 µM) | 5.1 (≈ 9.16 µM)
C=C(C)[C@@H]1CC[C@]2(C(=O)O)CC[C@]3(C)[C@H](CC[C@@H]4[C@@]5(C)CC[C@H](O)C(C)(C)[C@@H]5CC[C@]43C)[C@@H]12 [BETULINIC ACID] | 1.1 (≈ 2.41 µM) | 3.4 (≈ 7.44 µM) | 5 (≈ 10.9 µM) | 0.85 (≈ 1.86 µM) | > 10 | 0.86 (≈ 1.88 µM) | 4.7 (≈ 10.3 µM)
C[C@H]1[C@@H](O)[C@@H](C)[C@@]2(O[C@@H]1C)[C@@H](C)[C@H]1OC(=O)[C@]2(C)C(=O)[C@@H]1C [PORTENTOL] | > 10 | > 10 | 1.3 (≈ 4.19 µM) | 7 (≈ 22.6 µM) | > 10 | 4.7 (≈ 15.1 µM) | 4.7 (≈ 15.1 µM)
COc1cc(C)c2c(=O)c3c(O)cc(OC)cc3oc2c1 [LICHEXANTHONE] | 4.1 (≈ 14.3 µM) | 2 (≈ 6.99 µM) | 3.7 (≈ 12.9 µM) | 2.5 (≈ 8.73 µM) | > 10 | 3 (≈ 10.5 µM) | 7.1 (≈ 24.8 µM)
